Source: paper PMC9864808, “Exploring Mannosylpurines as Copper Chelators and Cholinesterase Inhibitors with Potential for Alzheimer’s Disease” (Pharmaceuticals, 2022)
Where “and” joins values, the source holds several entries; their conditions need not be identical. Identical values can stand only once.

Experiments:
[1] = UV-Visible chelating study, copper; settings: ions Cu^2+, Zn^2+, Fe^2+, Al^3+ as chlorides, water/DMSO
Procedure: (§1) The chelating activity of all purine nucleoside probes was evaluated by the UV-Visible method in order to determine compounds’ absorption spectra in the absence and in the presence of Cu^2+ at concentrations ranging from 1 μM to 10 μM. […] The resulting wavelength shift from λ = 280 to λ = 325 nm indicates a conformational rearrangement induced by interaction with Cu^2+.
(§2) UV-Visible spectroscopy offers the advantage of high sensitivity towards small changes that affect the electronic properties of ligand receptors, so absorption spectra of all reported compounds have been evaluated by recording UV-visible properties in subsequent conditions: 1.5 mL 1 × 10^−4M of the probe are added to 1.5 mL 2 × 10^−5M of each ion chloride salt’s solution (Copper Chloride (CuCl2), Zinc Chloride (ZnCl2), Iron (II) Chloride (FeCl2) and Aluminum Chloride (AlCl3)). A mixture of distilled water/DMSO 95:5 has been selected as a solvent for compounds 5–10 and 12. For compounds 14–16, the selected solvent was a mixture of distilled water/DMSO 90:10 due to poor water solubility. Furthermore, a titration assay of each compound has been carried out by adding increasing concentration of selected ion (final ion concentration = 1 µM, 2 µM, 3 µM, 5 µM, and 10 µM).

[2] = target: hBChE (recombinant human isoform) (Homo sapiens, UniProt P06276); assay: biochemical; type: biochemical; settings: for IC50: recombinant human isoform, means ± SD of three measurements
Sequence of hBChE (recombinant human isoform) (P06276 29-602): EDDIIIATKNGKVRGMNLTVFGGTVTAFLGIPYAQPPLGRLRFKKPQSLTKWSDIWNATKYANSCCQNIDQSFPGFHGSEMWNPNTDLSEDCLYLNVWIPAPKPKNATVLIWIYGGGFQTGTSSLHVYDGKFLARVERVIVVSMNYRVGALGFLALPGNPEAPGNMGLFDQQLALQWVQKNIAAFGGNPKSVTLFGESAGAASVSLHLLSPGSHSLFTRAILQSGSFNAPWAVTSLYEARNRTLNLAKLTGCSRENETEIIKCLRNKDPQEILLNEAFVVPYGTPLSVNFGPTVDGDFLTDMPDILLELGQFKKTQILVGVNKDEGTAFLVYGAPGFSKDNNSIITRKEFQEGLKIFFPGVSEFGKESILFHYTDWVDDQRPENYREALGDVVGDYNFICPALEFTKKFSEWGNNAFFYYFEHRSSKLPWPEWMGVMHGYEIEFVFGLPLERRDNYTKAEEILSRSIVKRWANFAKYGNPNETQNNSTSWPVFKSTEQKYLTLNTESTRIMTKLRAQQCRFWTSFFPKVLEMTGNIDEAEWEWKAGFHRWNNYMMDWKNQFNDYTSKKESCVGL
Procedure: (§3) The in vitro inhibitory activities of novel purine nucleosides 5-10, 12, 13 and 15, and 16 were evaluated against both heterologous (electric eel eeAChE, horse eqBChE) and human (recombinant) cholinesterases isoforms, by applying the Ellmann colorimetric assay, with slight modifications.
(§4) The test compounds were assayed for their inhibitory activity toward eeAChE (electric eel AChE) and eqBChE (horse serum BChE), respectively, following Ellman’s method with modifications. […] AChE inhibitory activity was determined similarly by using a solution of AChE (0.9 U/mL in 0.1 M pH 8.0 phosphate buffer, PB) and acetylthiocholine iodide (ATC, 0.05 mM in 0.1 M pH 8.0 phosphate buffer, PB) as substrate. The inhibition data are reported as means of IC50’s determined at least in three independent measurements.

[3] = target: hAChE (recombinant human isoform) (Homo sapiens, UniProt P22303); assay: biochemical; type: biochemical; settings: for IC50: recombinant human isoform, means ± SD of three measurements; for inhibition at 20 µM: read-out: inhibition percentage hAChE
Sequence of hAChE (recombinant human isoform) (P22303 32-614): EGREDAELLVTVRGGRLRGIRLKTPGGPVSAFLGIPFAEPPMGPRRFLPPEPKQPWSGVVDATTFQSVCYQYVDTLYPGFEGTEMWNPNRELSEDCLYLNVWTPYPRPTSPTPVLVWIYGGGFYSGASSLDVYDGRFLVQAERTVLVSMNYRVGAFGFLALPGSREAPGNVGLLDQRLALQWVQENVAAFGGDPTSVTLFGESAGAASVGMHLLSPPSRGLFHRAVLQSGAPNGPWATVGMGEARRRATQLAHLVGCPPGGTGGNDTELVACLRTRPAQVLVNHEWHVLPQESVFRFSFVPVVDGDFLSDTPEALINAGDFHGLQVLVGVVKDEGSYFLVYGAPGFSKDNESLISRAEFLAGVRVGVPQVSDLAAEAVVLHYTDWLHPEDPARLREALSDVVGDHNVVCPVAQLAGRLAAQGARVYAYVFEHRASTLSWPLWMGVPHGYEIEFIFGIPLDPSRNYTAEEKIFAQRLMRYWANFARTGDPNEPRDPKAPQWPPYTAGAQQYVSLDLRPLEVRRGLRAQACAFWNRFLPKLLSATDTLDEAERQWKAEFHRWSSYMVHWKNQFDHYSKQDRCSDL
Procedure: as §3, §4

[4] = target: T1, eqBChE (horse serum butyrylcholinesterase) (Equus caballus, UniProt P81908); assay: biochemical; settings: for inhibition at 20 µM: read-out: inhibition percentage eqBChE; for IC50: horse serum BChE, means ± SD of three measurements
T1 construct: eqBChE (horse serum BChE); from tissue; host or cells: horse serum
T1 sequence (P81908 whole entry): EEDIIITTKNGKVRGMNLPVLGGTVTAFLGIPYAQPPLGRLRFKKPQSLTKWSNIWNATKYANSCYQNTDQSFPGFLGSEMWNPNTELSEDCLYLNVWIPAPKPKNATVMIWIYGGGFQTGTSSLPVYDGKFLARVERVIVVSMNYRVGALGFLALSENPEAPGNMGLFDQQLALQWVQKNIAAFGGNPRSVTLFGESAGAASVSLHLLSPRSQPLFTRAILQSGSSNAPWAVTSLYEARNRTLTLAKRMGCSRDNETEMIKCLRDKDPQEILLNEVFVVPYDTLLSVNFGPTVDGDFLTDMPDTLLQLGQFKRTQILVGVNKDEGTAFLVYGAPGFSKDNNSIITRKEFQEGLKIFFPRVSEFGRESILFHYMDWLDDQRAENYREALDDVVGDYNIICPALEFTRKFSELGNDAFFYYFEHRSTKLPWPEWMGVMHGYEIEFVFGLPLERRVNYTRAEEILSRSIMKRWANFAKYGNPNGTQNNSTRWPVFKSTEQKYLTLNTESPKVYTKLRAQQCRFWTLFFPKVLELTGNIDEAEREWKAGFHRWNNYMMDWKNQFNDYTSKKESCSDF
Procedure: as §4, with “The in vitro inhibitory activities of novel purine nucleosides 5-10, 12, 13 and 15, and 16 were evaluated against both heterologous (electric eel eeAChE, horse eqBChE) and human (recombinant) cholinesterases isoforms, by applying the Ellmann colorimetric assay, with slight modifications. […] The test” for “The test”

[5] = target: eeAChE (electric eel acetylcholinesterase) (Electrophorus electricus, UniProt O42275); assay: biochemical; settings: for IC50: Ellman assay, means ± SD of three measurements; for inhibition at 20 µM: read-out: inhibition percentage eeAChE, at 20 μM
Sequence of eeAChE (electric eel acetylcholinesterase) (O42275 24-633): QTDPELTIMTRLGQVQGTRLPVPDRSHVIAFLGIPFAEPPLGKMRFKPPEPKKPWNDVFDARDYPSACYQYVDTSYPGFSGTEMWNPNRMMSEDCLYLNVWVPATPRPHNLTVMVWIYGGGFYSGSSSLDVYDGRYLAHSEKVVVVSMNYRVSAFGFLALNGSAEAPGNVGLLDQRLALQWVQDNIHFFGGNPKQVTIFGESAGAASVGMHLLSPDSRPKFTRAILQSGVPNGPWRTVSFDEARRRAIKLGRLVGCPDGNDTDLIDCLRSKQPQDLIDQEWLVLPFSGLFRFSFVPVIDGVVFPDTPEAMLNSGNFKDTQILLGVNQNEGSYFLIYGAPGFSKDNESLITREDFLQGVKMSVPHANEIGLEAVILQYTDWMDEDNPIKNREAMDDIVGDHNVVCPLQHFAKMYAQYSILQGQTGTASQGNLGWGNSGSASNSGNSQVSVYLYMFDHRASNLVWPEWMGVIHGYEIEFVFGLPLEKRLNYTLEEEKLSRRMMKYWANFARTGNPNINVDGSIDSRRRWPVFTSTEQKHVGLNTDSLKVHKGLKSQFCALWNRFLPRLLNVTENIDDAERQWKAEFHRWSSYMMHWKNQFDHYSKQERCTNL
Procedure: as §4, with “The in vitro inhibitory activities of novel purine nucleosides 5-10, 12, 13 and 15, and 16 were evaluated against both heterologous (electric eel eeAChE, horse eqBChE) and human (recombinant) cholinesterases isoforms, by applying the Ellmann colorimetric assay, with slight modifications. […] The test” for “The test”

[6] = Water solubility (qualitative remark); type: physicochemical
[7] = UV-Visible chelating study, aluminum; settings: UV-Visible absorption
Procedure: as §1, §2

[8] = UV-Visible chelating study, iron; settings: UV-Visible absorption
Procedure: as §1, §2

[9] = UV-Visible chelating study, zinc; settings: UV-Visible absorption
Procedure: as §1, §2

serum BChE = settings: literature value determined for serum BChE; read-out: IC50 hBChE; cited from earlier work
brain AChE = settings: literature value determined for brain AChE; read-out: IC50 hAChE; cited from earlier work
[10] = at 5 μM (lower water solubility), 5 µM

| Structure (SMILES) | chelating activity / metal selectivity, result in words [1] | eqBChE inhibition, result in words [4] | IC50 [4] | IC50 [5] | IC50 [2] | IC50 [3] | further results |
| --- | --- | --- | --- | --- | --- | --- | --- |
| CC(=O)O[C@@H]1[C@@H](OC(C)=O)[C@H](C)O[C@@H](n2cnc3c(NC(=O)c4ccccc4)ncnc32)[C@@H]1OC(C)=O [Compound 12, 6-benzamido-9-(6-deoxy-2,3,4-tri-O-acetyl-α-L-mannopyranosyl)purine] | selective Cu^2+ chelating agents | not active | > 20 µM | > 20 µM |  |  | hBChE inhibition, result in words [2]: not active; hAChE inhibition, result in words [3]: not active; inhibition at 20 µM [4]: 5%; eeAChE inhibition, result in words [5]: not active; inhibition at 20 µM [5]: 8% |
| O=C(Nc1ncnc2c1ncn2[C@H]1O[C@H](COCc2ccccc2)[C@@H](OCc2ccccc2)[C@H](OCc2ccccc2)[C@@H]1OCc1ccccc1)c1ccccc1 [Compound 5, 6-benzamido-9-(2,3,4,6-tetra-O-benzyl-α-D-mannopyranosyl)purine] |  |  | > 20 µM | > 20 µM |  |  | inhibition at 20 µM [4]: 11%; inhibition at 20 µM [5]: 25% |
| C[C@@H]1O[C@@H](n2cnc3c(NC(=O)c4ccccc4)ncnc32)[C@H](OCc2ccccc2)[C@H](OCc2ccccc2)[C@H]1OCc1ccccc1 [Compound 15, 6-benzamido-9-(6-deoxy-2,3,4-tri-O-benzyl-α-L-mannopyranosyl)purine] | selective copper chelator |  | > 5 µM | > 5 µM | > 5 µM | > 5 µM | water solubility, in words [6]: dramatic reduction of aqueous solubility; interaction with aluminum ion, result in words [7]: no relevant interaction; interaction with iron ion, result in words [8]: no relevant interaction; inhibition percentage hAChE [3, 10]: 28 ± 3%; interaction with zinc ion, result in words [9]: no relevant interaction; inhibition at 5 µM ([5]; read-out: inhibition percentage eeAChE, at 5 μM (lower water solubility)): ≤ 50% |
| CC(=O)Nc1nc(Cl)c2c(ncn2[C@H]2O[C@H](COCc3ccccc3)[C@@H](OCc3ccccc3)[C@H](OCc3ccccc3)[C@@H]2OCc2ccccc2)n1 [Compound 2, reference compound] |  |  | 0.05 ± 0.01 µM | 18.1 ± 4.8 µM |  |  |  |
| C[C@H]1O[C@H](n2cnc3c(NC(=O)c4ccccc4)ncnc32)[C@@H](OCc2ccccc2)[C@@H](OCc2ccccc2)[C@@H]1OCc1ccccc1 [Compound 9, 6-benzamido-9-(6-deoxy-2,3,4-tri-O-benzyl-α-D-mannopyranosyl)purine] |  |  | > 20 µM | 4.7 µM and 4.69 µM | 15.4 ± 1.1 µM | > 20 µM | hBChE inhibition, result in words [2]: selective inhibitor; inhibition at 20 µM [3]: 25%; inhibition at 20 µM [4]: 28%; eeAChE inhibition, result in words [5]: selective inhibitor |
| C[C@H]1O[C@@H](n2cnc3c(NC(=O)c4ccccc4)ncnc32)[C@@H](OCc2ccccc2)[C@@H](OCc2ccccc2)[C@@H]1OCc1ccccc1 [Compound 10, 6-benzamido-9-(6-deoxy-2,3,4-tri-O-benzyl-β-D-mannopyranosyl)purine] |  | moderate inhibition | 11.7 ± 1.2 µM | 15 ± 2.1 µM | 8.7 ± 1.35 µM | 17.8 ± 2.2 µM |  |
| COc1ccc2c3c1O[C@H]1C[C@@H](O)C=C[C@@]31CCN(C)C2 [Galantamine] |  |  |  |  |  |  | IC50 (serum BChE): 59.2 ± 1.7 µM; IC50 (brain AChE): 5 ± 0.071 µM |
| O=C(Nc1ncnc2ncn([C@H]3O[C@H](COCc4ccccc4)[C@@H](OCc4ccccc4)[C@H](OCc4ccccc4)[C@@H]3OCc3ccccc3)c12)c1ccccc1 [Compound 7, 6-benzamido-7-(2,3,4,6-tetra-O-benzyl-α-D-mannopyranosyl)purine] |  | selective | 10 ± 1.1 µM | > 20 µM |  |  |  |
| C[C@@H]1O[C@@H](n2cnc3c(N(Cc4ccccc4)C(=O)c4ccccc4)ncnc32)[C@H](OCc2ccccc2)[C@H](OCc2ccccc2)[C@H]1OCc1ccccc1 [Compound 13, 6-benzamido-N-benzyl-9-(6-deoxy-2,3,4-tri-O-benzyl-α-L-mannopyranosyl)purine] | did not show chelating activity | selective | 5.1 µM and 5.12 µM | > 20 µM | > 20 µM | > 20 µM | interaction with aluminum ion, result in words [7]: did not show chelating activity; interaction with iron ion, result in words [8]: did not show chelating activity; hBChE inhibition, result in words [2]: no activity; inhibition at 20 µM ([2]; at 20 μM, read-out: inhibition percentage hBChE): 25%; hAChE inhibition, result in words [3]: no activity; inhibition at 20 µM [3]: 8%; interaction with zinc ion, result in words [9]: did not show chelating activity; inhibition at 20 µM [5]: 6% |
| O=C(Nc1ncnc2ncn([C@@H]3O[C@H](COCc4ccccc4)[C@@H](OCc4ccccc4)[C@H](OCc4ccccc4)[C@@H]3OCc3ccccc3)c12)c1ccccc1 [Compound 8, 6-benzamido-7-(2,3,4,6-tetra-O-benzyl-β-D-mannopyranosyl)purine] |  |  | 4.4 ± 1.3 µM | 2.6 µM and 2.61 µM | 4.6 µM and 4.55 µM | 4.8 µM and 4.81 µM |  |
| Clc1ncnc2c1ncn2[C@H]1O[C@H](COCc2ccccc2)[C@@H](OCc2ccccc2)[C@H](OCc2ccccc2)[C@@H]1OCc1ccccc1 [Compound 1, 6-chloro-9-(2,3,4,6-tetra-O-benzyl-α-D-mannopyranosyl)purine, reference compound] |  |  | 2.8 ± 0.3 µM | 2.4 ± 0.3 µM |  |  |  |
| O=C(Nc1ncnc2c1ncn2[C@@H]1O[C@H](COCc2ccccc2)[C@@H](OCc2ccccc2)[C@H](OCc2ccccc2)[C@@H]1OCc1ccccc1)c1ccccc1 [Compound 6, 6-benzamido-9-(2,3,4,6-tetra-O-benzyl-β-D-mannopyranosyl)purine] |  |  | 4.3 µM and 4.29 µM | 10.6 ± 1.1 µM | 4.6 µM and 4.58 µM | 17 ± 0.75 µM |  |
| C[C@@H]1O[C@H](n2cnc3c(NC(=O)c4ccccc4)ncnc32)[C@H](OCc2ccccc2)[C@H](OCc2ccccc2)[C@H]1OCc1ccccc1 [Compound 16, 6-benzamido-9-(6-deoxy-2,3,4-tri-O-benzyl-β-L-mannopyranosyl)purine] | non-selective chelator |  | > 5 µM | > 5 µM | > 5 µM | > 5 µM | water solubility, in words [6]: dramatic reduction of aqueous solubility; inhibition percentage hBChE [2, 10]: 30 ± 7%; inhibition at 5 µM ([2]; at 5 μM (lower water solubility), read-out: inhibition percentage hBChE): < 50% |
